Patent US11999699B2, “Substituted pyrazole amides” (GRUENENTHAL GMBH, priority 2021, dated 2024)

target: T1, human NaV1.8 (Homo sapiens, UniProt Q9Y5Y9); assay: Electrophysiology: automated whole-cell voltage-clamp (patch clamp, Qube384) recordings of sodium currents in HEK-NaV1.8 cells; assay type: cell-based; conditions: potency data either taken from inactivated or resting state, read-out: Potency category (human NaV1.8 IC50)
T1 construct: The following NaV1.8 recombinant cell line was used for recordings: HEK-NaV1.8 (NM 006514.1); expressed in transfected cells; host or cells: HEK (recombinant cell line HEK-NaV1.8)
T1 sequence (Q9Y5Y9 whole entry): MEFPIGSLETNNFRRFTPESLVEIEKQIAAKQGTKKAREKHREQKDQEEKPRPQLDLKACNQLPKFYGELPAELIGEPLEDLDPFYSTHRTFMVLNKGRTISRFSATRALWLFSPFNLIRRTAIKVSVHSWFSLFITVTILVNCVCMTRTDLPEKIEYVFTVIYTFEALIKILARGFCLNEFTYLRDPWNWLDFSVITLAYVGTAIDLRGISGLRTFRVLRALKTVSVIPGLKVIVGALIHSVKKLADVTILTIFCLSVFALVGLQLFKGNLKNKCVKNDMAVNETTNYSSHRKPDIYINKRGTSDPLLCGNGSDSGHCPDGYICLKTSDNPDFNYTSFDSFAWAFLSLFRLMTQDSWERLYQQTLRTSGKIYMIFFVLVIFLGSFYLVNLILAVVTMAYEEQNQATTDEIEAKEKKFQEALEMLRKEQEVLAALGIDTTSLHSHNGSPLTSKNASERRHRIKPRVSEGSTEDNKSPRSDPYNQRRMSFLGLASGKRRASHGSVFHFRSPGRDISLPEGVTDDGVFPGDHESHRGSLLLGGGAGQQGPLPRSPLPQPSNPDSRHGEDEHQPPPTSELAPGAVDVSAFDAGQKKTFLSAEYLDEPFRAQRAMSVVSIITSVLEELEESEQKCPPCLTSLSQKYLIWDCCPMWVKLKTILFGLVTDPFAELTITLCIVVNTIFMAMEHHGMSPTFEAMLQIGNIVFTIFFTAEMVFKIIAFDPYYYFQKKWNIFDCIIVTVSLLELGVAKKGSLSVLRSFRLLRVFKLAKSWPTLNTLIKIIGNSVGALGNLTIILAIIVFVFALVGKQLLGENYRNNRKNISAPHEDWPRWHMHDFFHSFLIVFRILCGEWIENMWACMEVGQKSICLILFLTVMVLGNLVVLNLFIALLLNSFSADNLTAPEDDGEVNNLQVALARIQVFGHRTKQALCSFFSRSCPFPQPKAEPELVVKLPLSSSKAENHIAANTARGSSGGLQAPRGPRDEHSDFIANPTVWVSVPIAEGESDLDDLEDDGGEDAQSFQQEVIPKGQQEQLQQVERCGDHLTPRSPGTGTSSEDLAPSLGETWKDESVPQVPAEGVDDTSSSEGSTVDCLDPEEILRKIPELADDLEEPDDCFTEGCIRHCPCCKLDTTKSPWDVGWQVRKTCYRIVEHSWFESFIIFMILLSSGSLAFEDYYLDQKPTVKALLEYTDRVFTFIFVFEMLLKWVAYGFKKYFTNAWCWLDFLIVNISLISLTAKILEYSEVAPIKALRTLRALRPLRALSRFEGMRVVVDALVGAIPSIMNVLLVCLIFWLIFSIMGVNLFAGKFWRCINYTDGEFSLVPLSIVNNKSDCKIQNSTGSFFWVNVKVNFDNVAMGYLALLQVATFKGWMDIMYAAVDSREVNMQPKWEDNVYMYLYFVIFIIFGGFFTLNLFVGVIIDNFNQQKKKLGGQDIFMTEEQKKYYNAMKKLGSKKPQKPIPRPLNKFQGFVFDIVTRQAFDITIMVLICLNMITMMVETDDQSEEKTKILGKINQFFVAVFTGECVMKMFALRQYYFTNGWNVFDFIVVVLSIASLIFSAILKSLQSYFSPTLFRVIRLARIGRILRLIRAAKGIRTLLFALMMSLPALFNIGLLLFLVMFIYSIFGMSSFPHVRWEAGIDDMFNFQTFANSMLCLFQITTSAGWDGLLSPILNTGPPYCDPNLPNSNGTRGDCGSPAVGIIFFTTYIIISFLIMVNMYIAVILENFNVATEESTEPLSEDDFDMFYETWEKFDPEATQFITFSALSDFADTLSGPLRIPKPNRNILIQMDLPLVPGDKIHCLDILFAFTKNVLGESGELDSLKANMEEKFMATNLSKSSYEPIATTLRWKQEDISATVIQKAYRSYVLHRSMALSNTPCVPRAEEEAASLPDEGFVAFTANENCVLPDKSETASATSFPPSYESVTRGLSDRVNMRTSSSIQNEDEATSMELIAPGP
T1 sequence (Q9NY72 23-215 partner): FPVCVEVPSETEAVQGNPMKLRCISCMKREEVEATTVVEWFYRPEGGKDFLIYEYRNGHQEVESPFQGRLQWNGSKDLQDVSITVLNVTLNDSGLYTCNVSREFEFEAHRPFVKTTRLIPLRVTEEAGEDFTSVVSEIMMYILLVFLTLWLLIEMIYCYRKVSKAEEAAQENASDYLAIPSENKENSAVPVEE
Outline: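 Automated whole-cell patch clamp at room temperature on HEK cells expressing human NaV1.8, with 0.3% DMSO vehicle controls. State-dependent protocol from −120 mV tested resting (P1) and half-inactivated (P2, 4 s at V1/2) channels, plus 40-pulse trains at 10 and 20 Hz. Values after ~12 min compound exposure were normalised to baseline and corrected for vehicle run-down; IC50 from a 4-parameter logistic fit, taken from inactivated or resting state.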

SMILES	IC50
CCc1nn(CC2CCC(F)(F)C2)c(C(=O)Nc2ccnc(C(N)=O)c2)c1C(F)(F)F (stereo not shown) [SC-218, 4-(1-((3,3-difluorocyclopentyl)methyl)-3-ethyl-4-(trifluoromethyl)-1H-pyrazole-5-carboxamido)picolinamide]	≤ 0.1 µM
Cc1c(C(C)(F)F)nn([C@@H](C)C2CC(F)(F)C2)c1C(=O)Nc1ccnc(S(C)(=O)=O)c1 [SC-222a]	0.1 to 1 µM
Cc1c(C(C)(F)F)nn([C@H](C)C2CC(F)(F)C2)c1C(=O)Nc1ccnc(S(C)(=O)=O)c1 [SC-222b]	1 to 10 µM
Cc1c(C(C)(F)F)nn(CC2C[C@@H](F)[C@@H](F)C2)c1C(=O)Nc1ccnc(S(C)(=O)=O)c1 (stereo partly shown) [SC-224, 1-((3,4-difluorocyclopentyl)methyl)-3-(1,1-difluoroethyl)-4-methyl-N-(2-(methylsulfonyl)pyridin-4-yl)-1H-pyrazole-5-carboxamide]	0.1 to 1 µM
COc1nn(CC2CCC(F)(F)C2)c(C(=O)Nc2ccnc(S(C)(=O)=O)c2)c1C(F)(F)F (stereo not shown) [SC-225, 1-((3,3-difluorocyclopentyl)methyl)-3-methoxy-N-(2-(methylsulfonyl)pyridin-4-yl)-4-(trifluoromethyl)-1H-pyrazole-5-carboxamide]	≤ 0.1 µM
CS(=O)(=O)c1cccc(NC(=O)c2ccnn2CC2CCCCC2)c1 [SC-226, 1-(cyclohexylmethyl)-N-(3-(methyIsulfonyl)phenyl)-1H-pyrazole-5-carboxamide]	1 to 10 µM
CS(=O)(=O)c1cccc(NC(=O)c2c(C(F)F)cnn2CC2CCCCC2)c1 [SC-229, 1-(cyclohexylmethyl)-4-(difluoromethyl)-N-(3-(methylsulfonyl)phenyl)-1H-pyrazole-5-carboxamide]	≤ 0.1 µM
NS(=O)(=O)c1cccc(NC(=O)c2c(C(F)(F)F)c(C3CC3)nn2CC2CCC(F)(F)CC2)c1 [SC-230, 3-cyclopropyl-1-((4,4-difluorocyclohexyl)methyl)-N-(3-sulfamoylphenyl)-4-(trifluoromethyl)-lH-pyrazole-5-carboxamide]	≤ 0.1 µM
CC1(Cn2ncc(C(F)(F)F)c2C(=O)Nc2cccc(S(C)(=O)=O)c2)CCCCC1 [SC-232, 1-((1-methylcyclohexyl)methyl)-N-(3-(methylsulfonyl)phenyl)-4-(trifluoromethyl)-1H-pyrazole-5-carboxamide]	≤ 0.1 µM
Cc1nn(CC2COC2)c(C(=O)Nc2cccc(S(C)(=O)=O)c2)c1C(F)(F)F [SC-234, 3-methyl-N-(3-(methyIsulfonyl)phenyl)-1-(oxetan-3-yImethyl)-4-(trifluoromethyl)-1H-pyrazole-5-carboxamide]	1 to 10 µM
Cc1nn(CC2CCO2)c(C(=O)Nc2cccc(S(C)(=O)=O)c2)c1C(F)(F)F (stereo not shown) [SC-237, 3-methyl-N-(3-(methyIsulfonyl)phenyl)-1-(oxetan-2-yimethyl)-4-(trifluoromethyl)-1H-pyrazole-5-carboxamide]	1 to 10 µM
Cc1nn(CC2CCCCC2)c(C(=O)Nc2ccc(F)c(S(N)(=O)=O)c2)c1C(F)(F)F [SC-238, 1-(cyclohexyimethyl)-N-(4-fluoro-3-sulfamoylphenyl)-3-methyl-4-(trifluoromethyl)-1H-pyrazole-5-carboxamide]	≤ 0.1 µM
NS(=O)(=O)c1cc(NC(=O)c2c(C(F)(F)F)c(C3CC3)nn2CC2CCC(F)(F)CC2)ccn1 [SC-246, 3-cyclopropyl-1-((4,4-difluorocyclohexyl)methyl)-N-(2-sulfamoylpyridin-4-yl)-4-(trifluoromethyl)-1H-pyrazole-5-carboxamide]	≤ 0.1 µM
Cc1nn(C[C@@H]2CCC(F)(F)C2)c(C(=O)Nc2ccnc(C(N)=O)n2)c1C(F)(F)F [SC-248R]	1 to 10 µM

The next lines start with the values.

IC50	SMILES
≤ 0.1 µM	NC(=O)c1cc(NC(=O)c2c(C(F)F)c(C3CC3)nn2CC2CCC(F)(F)C2)ccn1 (stereo not shown) [SC-216, 4-(3-cyclopropyl-1-((3,3-difluorocyclopentyl)methyl)-4-(difluoromethyl)-1H-pyrazole-5-carboxamido)picolinamide]
≤ 0.1 µM	Cc1c(C(C)(F)F)nn(CC2(C(F)(F)F)CC(F)(F)C2)c1C(=O)Nc1ccnc(S(C)(=O)=O)c1 [SC-220, 1-((3,3-difluoro-1-(trifluoromethyl)cyclobutyl)methyl)-3-(1,l-difluoroethyl)-4-methyl-N-(2-(methylsulfonyl)pyridin-4-yl)-1H-pyrazole-5-carboxamide]
1 to 10 µM	Cc1nn(CC2CCC(F)(F)CC2)c(C(=O)Nc2ccnc(C#N)c2)c1C [SC-231, N-(2-cyanopyridin-4-yl)-1-((4,4-difluorocyclohexyl)methyl)-3,4-dimethyl-1H-pyrazole-5-carboxamide]
0.1 to 1 µM	CS(=O)(=O)c1cccc(NC(=O)c2c(C(F)(F)F)cnn2CC2(F)CCCCC2)c1 [SC-233, 1-((1-fluorocyclohexyl)methyl)-N-(3-(methylsulfonyl)phenyl)-4-(trifluoromethyl)-1H-pyrazole-5-carboxamide]
≤ 0.1 µM	NS(=O)(=O)c1cccc(NC(=O)c2c(C(F)(F)F)cnn2CC2CCCC2(F)F)c1 (stereo not shown) [SC-235, 1-((2,2-difluorocyclopentyl)methyl)-N-(3-sulfamoylphenyl)-4-(trifluoromethyl)-1H-pyrazole-5-carboxamide]
≤ 0.1 µM	Cc1nn(CC2CCC(F)(F)CC2)c(C(=O)Nc2cccc(S(N)(=O)=O)c2)c1Cl [SC-236, 4-chloro-1-((4,4-difluorocyclohexyl)methyl)-3-methyl-N-(3-sulfamoylphenyl)-1H-pyrazole-5-carboxamide]
0.1 to 1 µM	Cc1c(Cl)nn(CC2CCC(F)(F)CC2)c1C(=O)Nc1ccnc(C(N)=O)c1 [SC-239, 4-(3-chloro-1-((4,4-difluorocyclohexyl)methyl)-4-methyl-1H-pyrazole-5-carboxamido)picolinamide]
0.1 to 1 µM	Cc1nn(CC2CCC(F)(F)CC2)c(C(=O)Nc2cncc(S(C)(=O)=O)c2)c1C(F)(F)F [SC-241, 1-((4,4-difluorocyclohexyl)methyl)-3-methyl-N-(5-(methyisulfonyl)pyridin-3-yl)-4-(trifluoromethyl)-1H-pyrazole-5-carboxamide]
0.1 to 1 µM	Cc1c(C(F)(F)F)nn(CC2CCC(F)(F)CC2)c1C(=O)Nc1cncc(S(N)(=O)=O)c1 [SC-242, 1-((4,4-difluorocyclohexyl)methyl)-4-methyl-N-(5-sulfamoylpyridin-3-yl)-3-(trifluoromethyl)-1H-pyrazole-5-carboxamide]
0.1 to 1 µM	Cc1c(C(F)(F)F)nn(CC2CCC(F)(F)CC2)c1C(=O)Nc1cccc(S(N)(=O)=O)n1 [SC-243, 1-((4,4-difluorocyclohexyl)methyl)-4-methyl-N-(6-sulfamoylpyridin-2-yl)-3-(trifluoromethyl)-1H-pyrazole-5-carboxamide]
≤ 0.1 µM	Cc1nn(CC2CCCCC2)c(C(=O)Nc2cccc(S(N)(=O)=O)c2)c1C(F)(F)F [SC-244, 1-(cyclohexyimethyl)-3-methyl-N-(3-sulfamoylphenyl)-4-(trifluoromethyl)-1H-pyrazole-5-carboxamide]
1 to 10 µM	Cc1nn(C[C@@H]2CCC(F)(F)C2)c(C(=O)Nc2cncc(C(N)=O)c2)c1C(F)(F)F [SC-247R]
0.1 to 1 µM	Cc1nn(C[C@H]2CCC(F)(F)C2)c(C(=O)Nc2cncc(C(N)=O)c2)c1C(F)(F)F [SC-247S]
1 to 10 µM	Cc1nn(C[C@H]2CCC(F)(F)C2)c(C(=O)Nc2ccnc(C(N)=O)n2)c1C(F)(F)F [SC-248S]
